Results on two compounds are retold here after BindingDB's records for patent US11826435 (University of Saskatchewan, 2023).

The IC50 is the midpoint of a concentration-inhibition curve.

This assay concerns the target T1, Lysosomal acid glucosylceramidase (Homo sapiens, UniProt P04062).
T1 sequence (P04062 whole entry): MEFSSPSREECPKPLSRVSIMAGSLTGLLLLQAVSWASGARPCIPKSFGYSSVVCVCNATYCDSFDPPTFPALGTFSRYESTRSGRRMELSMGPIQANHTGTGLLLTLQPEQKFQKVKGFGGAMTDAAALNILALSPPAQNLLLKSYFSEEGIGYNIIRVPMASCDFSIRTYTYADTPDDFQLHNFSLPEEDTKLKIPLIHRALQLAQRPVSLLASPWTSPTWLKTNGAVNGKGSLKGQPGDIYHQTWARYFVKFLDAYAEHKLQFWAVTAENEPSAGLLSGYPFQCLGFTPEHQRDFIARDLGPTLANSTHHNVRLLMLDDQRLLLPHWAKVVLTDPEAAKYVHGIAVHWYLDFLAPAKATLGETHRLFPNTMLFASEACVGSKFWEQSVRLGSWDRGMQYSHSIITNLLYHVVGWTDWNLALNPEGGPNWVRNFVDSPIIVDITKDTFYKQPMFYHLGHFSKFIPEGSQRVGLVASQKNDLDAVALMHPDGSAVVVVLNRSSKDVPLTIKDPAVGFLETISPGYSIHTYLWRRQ
Kind of assay: Enzyme Kinetics - Measuring Inactivation Rates of Inhibitors. On the procedure:
Inactivation solutions contained a final concentration of 16.55 nM of Cerezyme (Recombinant GCase) in 200 μL of Reaction Buffer (50 mM acetate, 0.2% v/v Triton X-100, 0.3% w/v sodium taurocholate, pH 5.5). The Cerezyme was collected from leftover patient vials and had approximately 8275 nM in the vial. […] Once the inhibitor was added this was considered time=0 minutes. Meanwhile a 96 well plate inside a Biotek Synergy 4 hybrid multi-mode reader at 37 C. was being incubated. In the wells of the plate were waiting a high concentration ([…]) of 2,4-DNP-β-Glc substrate in 180 μL of Reaction Buffer. As the inhibitor inactivation was occurring, 20 μL aliquots were taken from the inactivation solutions and diluted on the plate containing the substrate bringing the final concentration of the substrate to […]. Once all the aliquots were added the solution in the wells was measured for absorbance at 400 nm for 8 minutes. At this time the measurements were paused and the next set of aliquots were taken to see how residual enzyme activity changes over time.

On to `O=[N+]([O-])c1ccc(OC2O[C@H](CO)[C@@H](O)[C@H](O)[C@H]2F)c([N+](=O)[O-])c1` (some centres not stated) [US11826435, Compound 1.1], for which the IC50 was over 1000 µM. On to `O[C@H]1[C@H](O)[C@@H](O)[C@@H]2O[C@@H]2[C@@H]1O` [US11826435, Compound 1.2], for which the Ki worked out at 140 µM.
